Test results published in ChEMBL document CHEMBL1158150, “Inhibition of reverse transcriptase activity by benzophenanthridine alkaloids” (J Nat Prod, 1979).
Activity calls are given as the source filed them. No cut-off for these calls is given here.

Key:
JLS-V9 [1] = test: Inhibition of reverse transcriptase from Rauscher murine leukemia virus propagated in JLS-V9 cells at 5 to 10 ug/ml; assay type: cell-based
[2] = system: Avian myeloblastosis virus; test: Inhibition of AMV reverse transcriptase assessed as [3H]TTP incorporation at 5 ug by toluene-based scintillation fluid counting in presence of activated DNA template primer
[3] = system: Avian myeloblastosis virus; test: Inhibition of AMV reverse transcriptase assessed as [3H]TTP incorporation at 5 ug by toluene-based scintillation fluid counting in presence of 70S RNA template primer
[4] = system: Avian myeloblastosis virus; test: Inhibition of AMV reverse transcriptase assessed as [3H]TTP incorporation by toluene-based scintillation fluid counting in presence of 0.10 umole MnCl2
[5] = system: Avian myeloblastosis virus; test: Inhibition of AMV reverse transcriptase assessed as [3H]TTP incorporation at 5 ug by toluene-based scintillation fluid counting in presence of poly rA.oligo dT template primer
[6] = system: Avian myeloblastosis virus; test: Inhibition of AMV reverse transcriptase assessed as [3H]TTP incorporation at 5 ug by toluene-based scintillation fluid counting in presence of poly dA.oligo dT template primer
JLS-V9 [7] = test: Inhibition of reverse transcriptase from Rauscher murine leukemia virus propagated in JLS-V9 cells at 40 to 60 ug/ml; assay type: cell-based
[8] = system: Avian myeloblastosis virus; test: Inhibition of AMV reverse transcriptase assessed as [3H]dGTP incorporation at 5 ug by toluene-based scintillation fluid counting in presence of poly rC.oligo dG template primer
[9] = system: Avian myeloblastosis virus; test: Inhibition of AMV reverse transcriptase assessed as [3H]TTP incorporation by toluene-based scintillation fluid counting in presence of 0.50 umole MnCl2
[10] = system: Avian myeloblastosis virus; test: Inhibition of AMV reverse transcriptase assessed as [3H]TTP incorporation at 5 ug by toluene-based scintillation fluid counting in presence of 2 to 20 ug poly rA.oligo dT template primer
[11] = system: Avian myeloblastosis virus; test: Inhibition of AMV reverse transcriptase at 45 to 50 ug/ml
JLS-V9 [12] = test: Inhibition of reverse transcriptase from Rauscher murine leukemia virus propagated in JLS-V9 cells at 6 to 18 ug/ml; assay type: cell-based
[13] = system: Avian myeloblastosis virus; test: Inhibition of AMV reverse transcriptase assessed as [3H]TTP incorporation at 5 ug by toluene-based scintillation fluid counting in presence of template primer
[14] = system: Avian myeloblastosis virus; test: Inhibition of AMV reverse transcriptase at 30 to 40 ug/ml
[15] = system: Avian myeloblastosis virus; test: Inhibition of AMV reverse transcriptase at 6 to 12 ug/ml
JLS-V9 [16] = test: Inhibition of reverse transcriptase from MuLV propagated in JLS-V9 cells at 30 to 40 ug/ml; assay type: cell-based; conditions: Rauscher murine leukemia virus
[17] = system: Avian myeloblastosis virus; test: Inhibition of AMV reverse transcriptase assessed as [3H]TMP incorporation by toluene-based scintillation fluid counting
[18] = system: Avian myeloblastosis virus; test: Inhibition of AMV reverse transcriptase at 40 to 50 ug/ml
[19] = system: Avian myeloblastosis virus; test: Inhibition of AMV reverse transcriptase at 50 to 60 ug/ml
[20] = system: Avian myeloblastosis virus; test: Inhibition of AMV reverse transcriptase at 12 to 18 ug/ml

| Structure (SMILES) | inhibition [2] [%] | inhibition [3] [%] | Activity [4] | inhibition [5] [%] | inhibition [6] [%] | inhibition [8] [%] | Activity [9] | Activity [10] | Activity (JLS-V9 [1]) | Activity (JLS-V9 [7]) | Activity (JLS-V9 [12]) | Activity [13] | inhibition [14] [%] | Activity [8] | inhibition (JLS-V9 [16]) [%] | Activity [17] | further results |
| --- | --- | --- | --- | --- | --- | --- | --- | --- | --- | --- | --- | --- | --- | --- | --- | --- | --- |
| COc1cc2c(ccc3c4cc(OC)c(OC)cc4c[n+](C)c23)cc1O |  |  | Active |  |  |  | Active | inactive | Active |  | Active | Active | > 90 | Active | > 90 | Active | inhibition [15]: 50% |
| COc1cc2c(cc1OC)C(OC)N(C)c1c-2ccc2cc3c(cc12)OCO3.O=C(O)Br (stereo not given) | 92 | 91 | Active | 94 | 93 | 2 | Active | inactive | Active | Active |  |  |  |  |  |  | inhibition [19]: 50% |
| COc1cc2ccc3c4cc(OC)c(OC)cc4c(OC)[n+](C)c3c2cc1OC | 96 | 95 | Active | 98 | 97 | 3 | Active | inactive | Active |  | Active |  | > 90 |  | > 90 |  | inhibition [20]: 50% |

Now from value to molecule, other results behind:

| inhibition [2] [%] | inhibition [3] [%] | Activity [4] | inhibition [5] [%] | inhibition [6] [%] | inhibition [8] [%] | Activity [9] | Activity [10] | Structure (SMILES) | Activity (JLS-V9 [1]) | Activity (JLS-V9 [7]) | Activity (JLS-V9 [12]) | Activity [13] | inhibition [14] [%] | Activity [8] | inhibition (JLS-V9 [16]) [%] | Activity [17] | further results |
| --- | --- | --- | --- | --- | --- | --- | --- | --- | --- | --- | --- | --- | --- | --- | --- | --- | --- |
| 93 | 92 | Active | 95 | 94 | 2 | Active | inactive | COc1cc2ccc3c4cc5c(cc4c(OC)[n+](C)c3c2cc1OC)OCO5 | Active | Active |  |  |  |  |  |  | inhibition [11]: 50% |
|  |  | Active |  |  |  | Active | inactive | COc1cc2c[n+](C)c3c4cc5c(cc4ccc3c2cc1OC)OCO5 | Active | Active |  | Active |  | Active |  | Active | inhibition [18]: 50% |
